Calls of active or inactive are those of the source.
Tests used:
Large T antigen = Large T antigen (Simian virus 40, UniProt P03070); type: functional, Betapolyomavirus macacae;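 note: Confirmatory-stage PubChem screen for compounds that inhibit SV40 T antigen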
[1] = target: FAD-linked sulfhydryl oxidase ALR (Homo sapiens, UniProt P55789); assay: ALR-catalysed DTT oxidation blockers – biochemical, H2O2 detection, luminescence, cherry-pick, dose response (AID 493248)
[2] = target: T1, Microphthalmia-associated transcription factor (Homo sapiens, UniProt O75030); assay: reducers of TRPM1 reporter luminescence, concentration series – cell-based, SK-MEL-5, cherry-picked, set 3, MITF inhibitor project, dose response (AID 493073); type: functional;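 note: SK-MEL-5 melanoma cells with luciferase driven by the MITF target TRPM1 promoter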
T1 sequence (O75030 whole entry): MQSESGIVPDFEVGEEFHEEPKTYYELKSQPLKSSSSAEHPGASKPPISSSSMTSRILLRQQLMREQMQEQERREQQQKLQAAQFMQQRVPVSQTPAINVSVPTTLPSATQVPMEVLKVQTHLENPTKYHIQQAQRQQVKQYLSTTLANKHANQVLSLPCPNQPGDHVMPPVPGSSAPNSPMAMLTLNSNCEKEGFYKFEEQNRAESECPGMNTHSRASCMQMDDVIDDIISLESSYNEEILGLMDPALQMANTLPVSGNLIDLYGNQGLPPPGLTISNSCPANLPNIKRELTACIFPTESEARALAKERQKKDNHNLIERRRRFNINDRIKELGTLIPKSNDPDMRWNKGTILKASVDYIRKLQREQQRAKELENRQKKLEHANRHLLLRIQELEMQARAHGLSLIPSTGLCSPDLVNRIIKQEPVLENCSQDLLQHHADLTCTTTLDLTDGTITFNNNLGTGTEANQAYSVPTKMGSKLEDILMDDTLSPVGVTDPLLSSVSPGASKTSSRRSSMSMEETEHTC

A-375 [3] = assay: MITF: Counter assay: A375 proliferation Measured in Cell-Based System Using Plate Reader - 2084-03_Inhibitor_Dose_DryPowder_Activity. [Related pubchem assays (depositor defined):AID488944]; type: functional; conditions: Homo sapiens
A-375 [4] = assay: proliferation inhibition in MITF-low A375 cells – cell-based, cherry-pick samples, set 2, counter-screen for MITF modulator project, dose response (AID 540335); type: functional; conditions: Homo sapiens
[5] = target: Beta-adrenergic receptor kinase 1 (Homo sapiens, UniProt P25098); assay: blockers of aptamer binding to GRK2 – biochemical, flow cytometry beads, FAM-aptamer, powder set 1, dose response (AID 588720)
Sequence of Beta-adrenergic receptor kinase 1 (P25098 whole entry): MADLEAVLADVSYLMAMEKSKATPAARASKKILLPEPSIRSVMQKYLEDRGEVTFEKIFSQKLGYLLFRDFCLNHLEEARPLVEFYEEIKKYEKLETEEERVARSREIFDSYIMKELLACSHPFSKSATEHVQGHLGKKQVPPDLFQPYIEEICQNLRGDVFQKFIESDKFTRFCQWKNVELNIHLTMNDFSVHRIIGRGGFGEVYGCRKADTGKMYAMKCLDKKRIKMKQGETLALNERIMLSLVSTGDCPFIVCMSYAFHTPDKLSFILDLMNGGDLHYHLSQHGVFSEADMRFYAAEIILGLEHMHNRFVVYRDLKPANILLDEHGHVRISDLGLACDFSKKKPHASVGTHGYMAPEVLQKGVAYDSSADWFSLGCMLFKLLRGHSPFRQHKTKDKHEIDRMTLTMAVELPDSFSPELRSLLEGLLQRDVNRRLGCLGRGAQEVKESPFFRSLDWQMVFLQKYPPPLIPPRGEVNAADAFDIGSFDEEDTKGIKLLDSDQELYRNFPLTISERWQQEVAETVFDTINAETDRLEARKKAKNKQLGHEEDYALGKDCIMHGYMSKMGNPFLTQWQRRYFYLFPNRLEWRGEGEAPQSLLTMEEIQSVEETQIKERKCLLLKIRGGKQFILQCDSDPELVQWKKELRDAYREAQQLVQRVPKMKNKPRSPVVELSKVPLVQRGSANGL

[6] = target: T2, Tyrosine-protein phosphatase non-receptor type 7 (Homo sapiens, UniProt P35236); type: functional
T2 sequence (P35236 whole entry): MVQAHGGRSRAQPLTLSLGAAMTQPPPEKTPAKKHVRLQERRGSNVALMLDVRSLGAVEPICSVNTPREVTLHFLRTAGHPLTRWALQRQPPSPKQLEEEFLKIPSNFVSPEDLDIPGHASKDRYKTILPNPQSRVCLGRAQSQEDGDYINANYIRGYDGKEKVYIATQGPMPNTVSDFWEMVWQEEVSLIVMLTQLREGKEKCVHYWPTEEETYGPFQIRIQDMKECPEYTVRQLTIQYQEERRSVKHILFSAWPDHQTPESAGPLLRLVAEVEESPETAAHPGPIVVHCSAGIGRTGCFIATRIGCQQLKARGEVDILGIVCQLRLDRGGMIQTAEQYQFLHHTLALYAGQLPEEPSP

[7] = target: Glyceraldehyde-3-phosphate dehydrogenase (Homo sapiens, UniProt P04406)
Sequence of Glyceraldehyde-3-phosphate dehydrogenase (P04406 whole entry): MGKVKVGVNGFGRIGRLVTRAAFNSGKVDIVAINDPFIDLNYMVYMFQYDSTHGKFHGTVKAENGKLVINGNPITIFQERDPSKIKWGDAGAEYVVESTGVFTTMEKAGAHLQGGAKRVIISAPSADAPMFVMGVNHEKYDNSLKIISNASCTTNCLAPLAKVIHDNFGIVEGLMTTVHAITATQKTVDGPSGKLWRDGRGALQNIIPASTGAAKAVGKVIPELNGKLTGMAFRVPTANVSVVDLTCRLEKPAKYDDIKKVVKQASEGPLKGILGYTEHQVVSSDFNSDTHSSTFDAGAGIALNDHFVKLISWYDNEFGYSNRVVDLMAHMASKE

[8] = target: T3, Dual specificity protein phosphatase 6 (Rattus norvegicus, UniProt Q64346)
T3 sequence (Q64346 whole entry): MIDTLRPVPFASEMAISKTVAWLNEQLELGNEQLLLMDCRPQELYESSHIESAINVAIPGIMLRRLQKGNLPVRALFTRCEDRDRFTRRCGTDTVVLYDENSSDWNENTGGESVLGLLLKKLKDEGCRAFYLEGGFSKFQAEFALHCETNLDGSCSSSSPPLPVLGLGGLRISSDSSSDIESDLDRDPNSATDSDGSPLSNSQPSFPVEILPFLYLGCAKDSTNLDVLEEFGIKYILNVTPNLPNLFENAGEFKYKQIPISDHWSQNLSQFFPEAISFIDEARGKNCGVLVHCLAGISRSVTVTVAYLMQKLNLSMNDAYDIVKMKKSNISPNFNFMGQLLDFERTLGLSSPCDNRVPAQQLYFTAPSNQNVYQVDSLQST

[9] = target: T3, Dual specificity protein phosphatase 6; type: functional
[10] = target: T4, Short transient receptor potential channel 4 (Mus musculus, UniProt Q9QUQ5); assay: calcium entry via TRPC4 opening agents – cell-based, HEK293 TRPC4/mu-opioid, Fluo-4 calcium, dose response (AID 434937); type: functional
T4 sequence (Q9QUQ5 whole entry): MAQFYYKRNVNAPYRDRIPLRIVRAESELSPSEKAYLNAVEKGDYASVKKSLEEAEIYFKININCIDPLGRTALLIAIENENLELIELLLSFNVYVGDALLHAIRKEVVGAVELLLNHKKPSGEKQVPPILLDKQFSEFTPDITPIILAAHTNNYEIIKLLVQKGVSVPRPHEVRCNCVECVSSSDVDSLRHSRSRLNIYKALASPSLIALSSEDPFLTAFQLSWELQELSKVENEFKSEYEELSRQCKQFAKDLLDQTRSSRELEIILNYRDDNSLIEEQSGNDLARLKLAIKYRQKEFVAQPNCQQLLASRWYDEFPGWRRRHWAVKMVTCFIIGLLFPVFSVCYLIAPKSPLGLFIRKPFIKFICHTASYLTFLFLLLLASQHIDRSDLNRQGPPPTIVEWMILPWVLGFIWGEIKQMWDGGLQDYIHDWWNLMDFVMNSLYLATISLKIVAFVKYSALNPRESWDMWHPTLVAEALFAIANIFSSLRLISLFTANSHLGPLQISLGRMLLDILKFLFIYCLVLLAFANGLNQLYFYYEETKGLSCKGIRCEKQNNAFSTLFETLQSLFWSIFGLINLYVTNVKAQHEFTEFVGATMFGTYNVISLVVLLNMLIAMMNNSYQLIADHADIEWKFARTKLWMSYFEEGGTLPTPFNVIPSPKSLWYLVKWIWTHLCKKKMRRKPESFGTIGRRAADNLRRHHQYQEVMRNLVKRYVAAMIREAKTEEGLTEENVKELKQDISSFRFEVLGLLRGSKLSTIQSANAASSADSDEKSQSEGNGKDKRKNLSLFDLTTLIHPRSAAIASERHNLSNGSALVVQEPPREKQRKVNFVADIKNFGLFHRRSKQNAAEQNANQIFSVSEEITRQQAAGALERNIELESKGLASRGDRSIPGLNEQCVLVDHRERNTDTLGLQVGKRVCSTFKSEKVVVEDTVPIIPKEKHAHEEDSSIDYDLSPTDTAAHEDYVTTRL

[11] = target: Delta-type opioid receptor (Homo sapiens, UniProt P41143); assay: Counterscreen for agonists of heterodimerization of the mu 1 (OPRM1) and delta 1 (OPRD1) opioid receptors: Luminescence-based cell-based high throughput dose response assay to identify agonists of OPRD1 homodimerization. [Related pubchem assays (depositor defined):AID504326, AID504355, AID504692, AID504904, AID504905]; type: functional
Sequence of Delta-type opioid receptor (P41143 whole entry): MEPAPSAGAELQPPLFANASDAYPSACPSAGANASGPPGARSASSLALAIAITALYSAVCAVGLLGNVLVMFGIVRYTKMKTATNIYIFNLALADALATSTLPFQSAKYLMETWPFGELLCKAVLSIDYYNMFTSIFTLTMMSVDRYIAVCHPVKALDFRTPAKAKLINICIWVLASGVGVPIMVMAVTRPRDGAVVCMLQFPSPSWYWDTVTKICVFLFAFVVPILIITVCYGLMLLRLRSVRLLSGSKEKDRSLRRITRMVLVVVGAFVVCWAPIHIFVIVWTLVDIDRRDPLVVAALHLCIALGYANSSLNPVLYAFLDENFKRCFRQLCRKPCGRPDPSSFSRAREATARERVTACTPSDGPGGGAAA

Mu-type opioid receptor = Mu-type opioid receptor (Homo sapiens, UniProt P35372); assay: Counterscreen for agonists of heterodimerization of the mu 1 (OPRM1) and delta 1 (OPRD1) opioid receptors: Luminescence-based cell-based high throughput dose response assay to identify agonists of OPRM1 homodimerization.; type: functional;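 note: U2OS cells expressing OPRM1 and beta-arrestin as split beta-galactosidase partners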
Sequence of Mu-type opioid receptor (P35372 whole entry): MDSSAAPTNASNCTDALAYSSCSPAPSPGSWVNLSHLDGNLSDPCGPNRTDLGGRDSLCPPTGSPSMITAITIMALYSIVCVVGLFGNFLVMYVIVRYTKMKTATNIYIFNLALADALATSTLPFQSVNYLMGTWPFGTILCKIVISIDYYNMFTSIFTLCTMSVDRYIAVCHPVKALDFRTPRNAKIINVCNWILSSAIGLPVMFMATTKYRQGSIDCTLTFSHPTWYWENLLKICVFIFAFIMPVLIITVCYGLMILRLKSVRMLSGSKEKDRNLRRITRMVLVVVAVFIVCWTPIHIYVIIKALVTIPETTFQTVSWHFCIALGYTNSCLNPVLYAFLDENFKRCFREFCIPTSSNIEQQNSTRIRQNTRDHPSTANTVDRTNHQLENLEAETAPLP

[12] = target: 5-hydroxytryptamine receptor 5A (Homo sapiens, UniProt P47898); assay: Counterscreen for agonists of OPRM1-OPRD1 heterodimerization: luminescence-based cell-based high throughput dose response assay to identify agonists of 5-hydroxytryptamine (serotonin) 5A receptor (HTR5A). [Related pubchem assays (depositor defined):AID504326, AID504355, AID504692, AID504904, AID504905]; type: functional
Sequence of 5-hydroxytryptamine receptor 5A (P47898 whole entry): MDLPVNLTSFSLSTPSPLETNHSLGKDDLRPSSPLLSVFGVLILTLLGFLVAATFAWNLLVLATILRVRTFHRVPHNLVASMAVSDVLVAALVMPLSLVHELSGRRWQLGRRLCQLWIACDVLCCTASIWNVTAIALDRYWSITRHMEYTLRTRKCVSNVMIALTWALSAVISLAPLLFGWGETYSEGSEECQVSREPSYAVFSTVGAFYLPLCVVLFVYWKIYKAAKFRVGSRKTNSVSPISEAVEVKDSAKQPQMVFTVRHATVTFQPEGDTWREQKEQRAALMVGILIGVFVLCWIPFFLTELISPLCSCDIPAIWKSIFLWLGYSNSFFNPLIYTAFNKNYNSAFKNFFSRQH

Vero [13] = assay: cells; type: functional, cell-based; conditions: Chlorocebus sabaeus
Vero [14] = assay: cells; type: functional; conditions: Chlorocebus sabaeus
[15] = reduction of Shn3 3'UTR-driven luciferase in osteoblasts – cell-based, Clone20 osteoblasts, firefly luciferase, cherry-picked, dose response (AID 624132); type: functional;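 note: firefly luciferase luminescence from reporter carrying the Shn3 3'UTR in osteoblasts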
[16] = loss of viability in HepG2 cells – cell-based, CellTiter-Glo, cherry-picked, cytotoxicity control for Shn3 inhibitor project, dose response (AID 624134); type: functional
[17] = non-specific 3'UTR reporter inhibition in Clone20-Shn3RL – cell-based, Renilla luciferase, cherry-picked, counter-screen for Shn3 inhibitor project, dose response (AID 624133); type: functional
Paired box protein Pax-8 = Paired box protein Pax-8 (Homo sapiens, UniProt Q06710); assay: PAX8 transcriptional activity inhibition in RMG-I – RMG-I cells, luciferase, cherry-pick, dose response (AID 687027); type: functional, cell-based;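 note: luciferase reporter driven by Pax8 target thyroperoxidase promoter measured by SteadyGlo luminescence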
Sequence of Paired box protein Pax-8 (Q06710 whole entry): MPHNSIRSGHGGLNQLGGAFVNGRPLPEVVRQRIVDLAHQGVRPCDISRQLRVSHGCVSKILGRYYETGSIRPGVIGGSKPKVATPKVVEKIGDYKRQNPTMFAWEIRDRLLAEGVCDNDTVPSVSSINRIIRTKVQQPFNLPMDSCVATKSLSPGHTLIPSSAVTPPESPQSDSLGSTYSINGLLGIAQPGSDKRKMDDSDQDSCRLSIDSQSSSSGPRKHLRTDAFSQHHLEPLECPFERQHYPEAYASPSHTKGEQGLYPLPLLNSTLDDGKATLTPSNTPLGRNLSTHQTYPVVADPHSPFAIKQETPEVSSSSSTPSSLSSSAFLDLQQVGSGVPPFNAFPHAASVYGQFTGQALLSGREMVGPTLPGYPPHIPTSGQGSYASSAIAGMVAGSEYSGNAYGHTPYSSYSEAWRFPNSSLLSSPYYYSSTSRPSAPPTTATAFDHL

Escherichia coli [18] = assay: microbe, parasite or virus in culture
Escherichia coli [19] = assay: microbe, parasite or virus in culture; remark: listed apart in the source
Hexokinase-1 [20] = target: T5, Hexokinase-1 (Homo sapiens, UniProt P19367); assay: hexokinase 1 activity inhibitors, potency – biochemical, set 2, resazurin fluorescence coupled readout, selectivity assay for HKDC1 inhibitor project, SAR follow-up (AID 588356); type: functional
T5 sequence (P19367 whole entry): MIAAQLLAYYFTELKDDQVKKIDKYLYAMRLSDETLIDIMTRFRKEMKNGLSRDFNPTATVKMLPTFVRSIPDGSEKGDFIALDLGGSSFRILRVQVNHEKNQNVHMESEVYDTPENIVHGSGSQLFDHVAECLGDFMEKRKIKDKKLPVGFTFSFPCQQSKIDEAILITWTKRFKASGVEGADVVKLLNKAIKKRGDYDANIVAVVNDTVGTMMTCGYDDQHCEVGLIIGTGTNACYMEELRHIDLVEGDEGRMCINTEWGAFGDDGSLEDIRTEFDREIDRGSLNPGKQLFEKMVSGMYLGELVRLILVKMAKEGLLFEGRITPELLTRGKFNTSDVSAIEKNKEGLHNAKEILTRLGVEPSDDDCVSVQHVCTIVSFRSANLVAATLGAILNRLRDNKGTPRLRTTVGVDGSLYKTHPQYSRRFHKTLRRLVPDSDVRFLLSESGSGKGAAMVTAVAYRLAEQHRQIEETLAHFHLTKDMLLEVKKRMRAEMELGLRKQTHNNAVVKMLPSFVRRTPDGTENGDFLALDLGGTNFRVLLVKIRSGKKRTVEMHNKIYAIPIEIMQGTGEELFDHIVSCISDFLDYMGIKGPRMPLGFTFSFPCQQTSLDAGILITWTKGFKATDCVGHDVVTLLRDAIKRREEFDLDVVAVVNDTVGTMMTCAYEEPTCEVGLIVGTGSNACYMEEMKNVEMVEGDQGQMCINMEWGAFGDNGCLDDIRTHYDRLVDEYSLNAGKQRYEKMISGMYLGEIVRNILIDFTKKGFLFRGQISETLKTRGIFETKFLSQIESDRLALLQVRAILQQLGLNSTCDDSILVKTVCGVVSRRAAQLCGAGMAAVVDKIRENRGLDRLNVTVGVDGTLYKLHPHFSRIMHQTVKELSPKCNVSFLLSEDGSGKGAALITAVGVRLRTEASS

Hexokinase HKDC1 [21] = target: T6, Hexokinase HKDC1 (Homo sapiens, UniProt Q2TB90); assay: analog inhibition of human HKDC1 activity – biochemical, set 2, SAR follow-up (AID 588355); type: functional
T6 sequence (Q2TB90 whole entry): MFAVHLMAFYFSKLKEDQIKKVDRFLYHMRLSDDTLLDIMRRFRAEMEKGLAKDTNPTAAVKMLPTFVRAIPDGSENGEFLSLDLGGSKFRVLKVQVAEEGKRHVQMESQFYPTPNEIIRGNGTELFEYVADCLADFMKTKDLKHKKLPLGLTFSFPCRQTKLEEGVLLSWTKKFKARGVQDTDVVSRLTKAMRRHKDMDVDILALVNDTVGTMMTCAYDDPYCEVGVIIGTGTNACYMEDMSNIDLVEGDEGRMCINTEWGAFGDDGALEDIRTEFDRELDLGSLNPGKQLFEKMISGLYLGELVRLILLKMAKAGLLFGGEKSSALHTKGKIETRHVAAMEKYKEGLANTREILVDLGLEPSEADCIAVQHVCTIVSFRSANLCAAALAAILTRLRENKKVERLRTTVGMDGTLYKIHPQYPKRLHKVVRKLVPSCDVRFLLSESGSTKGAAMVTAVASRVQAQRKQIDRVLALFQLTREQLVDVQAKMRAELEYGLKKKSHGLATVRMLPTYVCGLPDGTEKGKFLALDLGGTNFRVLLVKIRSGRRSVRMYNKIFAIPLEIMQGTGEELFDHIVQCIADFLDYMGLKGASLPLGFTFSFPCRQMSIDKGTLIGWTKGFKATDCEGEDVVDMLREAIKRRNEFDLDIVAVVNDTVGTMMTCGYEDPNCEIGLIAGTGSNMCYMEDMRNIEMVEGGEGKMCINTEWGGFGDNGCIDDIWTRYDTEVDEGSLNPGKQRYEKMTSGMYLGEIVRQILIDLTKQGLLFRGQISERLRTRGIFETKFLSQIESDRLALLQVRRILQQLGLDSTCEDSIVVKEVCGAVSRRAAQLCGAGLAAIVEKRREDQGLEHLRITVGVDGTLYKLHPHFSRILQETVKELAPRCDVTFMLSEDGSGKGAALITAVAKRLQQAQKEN

Hexokinase-1 [22] = target: T5, Hexokinase-1; assay: SAR analysis of small molecule inhibitors of hexokinase domain containing I (HKDC1) in the hexokinase 1 selectivity assay. [Related pubchem assays (depositor defined):AID493160, AID493190]; type: functional
Hexokinase HKDC1 [23] = target: T6, Hexokinase HKDC1; assay: SAR analysis of small molecule inhibitors of hexokinase domain containing I (HKDC1). [Related pubchem assays (depositor defined):AID493160, AID493190]; type: functional

Sequence of Large T antigen (P03070 whole entry): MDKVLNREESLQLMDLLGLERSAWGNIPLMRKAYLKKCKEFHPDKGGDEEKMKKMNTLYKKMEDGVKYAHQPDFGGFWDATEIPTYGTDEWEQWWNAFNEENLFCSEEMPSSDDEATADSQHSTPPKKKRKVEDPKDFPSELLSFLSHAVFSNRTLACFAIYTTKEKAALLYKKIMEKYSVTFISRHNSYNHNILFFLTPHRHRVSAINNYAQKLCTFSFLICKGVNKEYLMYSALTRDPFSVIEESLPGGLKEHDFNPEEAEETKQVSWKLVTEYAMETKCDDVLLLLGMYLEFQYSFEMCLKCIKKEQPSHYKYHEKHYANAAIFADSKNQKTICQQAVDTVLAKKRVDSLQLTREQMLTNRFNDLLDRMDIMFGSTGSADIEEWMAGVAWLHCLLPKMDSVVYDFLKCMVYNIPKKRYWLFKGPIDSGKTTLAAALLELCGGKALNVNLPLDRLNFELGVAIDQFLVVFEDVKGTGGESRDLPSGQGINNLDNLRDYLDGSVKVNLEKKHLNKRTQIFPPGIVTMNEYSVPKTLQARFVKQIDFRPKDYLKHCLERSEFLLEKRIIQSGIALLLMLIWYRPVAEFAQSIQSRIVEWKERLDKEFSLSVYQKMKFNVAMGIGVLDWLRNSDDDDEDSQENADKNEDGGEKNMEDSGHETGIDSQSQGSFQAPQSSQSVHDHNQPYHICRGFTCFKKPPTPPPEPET
Sequence of FAD-linked sulfhydryl oxidase ALR (P55789 whole entry): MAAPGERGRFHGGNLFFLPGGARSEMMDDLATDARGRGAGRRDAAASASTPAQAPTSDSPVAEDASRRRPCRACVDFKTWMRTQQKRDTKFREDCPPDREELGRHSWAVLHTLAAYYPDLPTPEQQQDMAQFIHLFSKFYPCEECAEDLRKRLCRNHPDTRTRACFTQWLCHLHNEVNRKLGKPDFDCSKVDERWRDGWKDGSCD

## O=C1NC(=O)N(c2ccccc2)C(=O)/C1=C/C=C/c1ccco1
Large T antigen
  IC50: 26.5 µM (active)
[1]
  AC50: 0.449 µM (active)
[2]
  AC50: 8.29 µM (active)
A-375 [3]
  AC50: > 35 µM (active)
A-375 [4]
  AC50: > 35 µM (active)

## CCc1ccccc1NC(=O)CCS(=O)(=O)c1ccc(Br)cc1
[5]
  EC50: 3.48 µM (active)

## CC(C)[C@@H](C(N)=O)n1c(=O)[nH]c(=O)n(-c2ccc(Cl)cc2)c1=O
[6]
  IC50: > 100 µM (not active)
[7]
  IC50: > 100 µM (not active)
[8]
  IC50: > 100 µM (inactive)
[9]
  IC50: > 100 µM (inactive)

## CN(C)C(CN=C(S)Nc1cccc(Cl)c1)c1cccnc1 (stereo unspecified)
[10]
  EC50: 0.0133 µM (active)
[11]
  EC50: 20.5 µM (inactive)
Mu-type opioid receptor
  EC50: 7.49 µM (active)
[12]
  EC50: > 92.5 µM (inactive)

## CC(N)C(=O)NC1C2C(=C(O)OC1(C)C(Cl)Cl)C(=O)CC(O)C2O (stereo unspecified)
Vero [13]
  IC50: > 25 µM (active)
Vero [14]
  CC50: 3.08 µM (active)
[15]
  AC50: 1.85 µM (active)
[16]
  AC50: > 70 µM (inactive)
[17]
  AC50: 2.03 µM (active)
Paired box protein Pax-8
  AC50: 0.546 µM (active)
Escherichia coli [18]
  AC50: 113 µM (active)
Escherichia coli [19]
  AC50: 20.8 µM (active)

## Cc1ccccc1N1C(=O)c2ccccc2C1Nc1ccc(Br)cc1 (stereo unspecified)
Hexokinase-1 [20]
  IC50: > 80 µM (inactive)
Hexokinase HKDC1 [21]
  IC50: > 80 µM (inactive)

## N#Cc1ccc(CSc2nnc(NC(=O)c3ccc4ccccc4n3)s2)cc1
Hexokinase-1 [22]
  IC50: > 80 µM (inactive)
Hexokinase HKDC1 [23]
  IC50: > 80 µM (inactive)

— ChEMBL document CHEMBL1201862, “PubChem BioAssay data set” (2004)
